Like-named read-outs stand apart in the source and are kept apart here. Where a SMILES comes first, the peptide text is derived from it. Bridges are numbered along the chain shown (N, C = ends).
Legend:
[1] = test system: Escherichia coli (ATCC 25922); set-up: method as in PMID 28669767; settings: previously reported; cited from earlier work
[2] = set-up: method as in PMID 28669767; settings: previous liposome leakage studies; cited from earlier work
[3] = test system: Human Lymphoma Cell Line U-937 GTB; set-up: method as in PMID 21491023; settings: previously reported; read-out: cytotoxicity, IC50, lymphoma U937; cited from earlier work
[4] = test system: Candida albicans (ATCC 90028); set-up: method as in PMID 28669767; settings: previously reported; cited from earlier work
[5] = test system: Staphylococcus aureus (ATCC 29213); set-up: method as in PMID 28669767; settings: previously reported; cited from earlier work
[6] = test system: Pseudomonas aeruginosa (ATCC 27853); set-up: method as in PMID 28669767; settings: previously reported; cited from earlier work
[7] = Liposome leakage (carboxyfluorescein release) membrane permeabilization assay; format: biochemical, E. coli; settings: carboxyfluorescein release at 45 min, Tris buffer pH 7.4, current study
Experimental: Each marker represents the mean leakage in Tris buffer, pH 7.4, with standard deviations from three experiments done at individual peptide concentrations, i.e., with no cumulative additions.
Liposomes were manufactured and their permeabilization was assayed as described previously.[48] Briefly, by dissolving an E. coli polar lipid extract in chloroform and evaporating the solvent under agitation, with a nitrogen gas flow, and then storing in vacuum, dry films were formed on the walls of a glass flask. Lipid films were resuspended in an aqueous solution of 100 mM 5(6)-carboxyfluorescein in 10 mM Tris (set to pH 7.4 at 37 °C). Suspensions were subjected to repeated extrusion through a 100 nm polycarbonate membrane in order to reduce multilamellar structures and polydispersity. Untrapped carboxyfluorescein was removed by gel filtration. Membrane permeability was measured by monitoring carboxyfluorescein efflux from the liposomes to the external low-concentration environment, resulting in loss of self-quenching and an increased fluorescence signal. […] The EC50 values are calculated from a sigmoidal dose–response curve with a variable slope to the leakage percentage as a function of the peptide concentration (log 10).

[8] = test system: standard microbial strains (E. coli, P. aeruginosa, S. aureus, C. albicans); assay: Microdilution MIC assay, whole panel of microorganisms; format: cell-based; settings: highest tested concentration 32.5 μM
Source text: (§1) Cyclotides isolated from G. repens were subjected to a microdilution assay on 96-well plates to determine minimum inhibitory concentration (MIC values), according to a method devised to minimize the activity-inhibiting presence of rich growth media.[43] For these experiments, bacterial strains of E. coli, P. aeruginosa, and S. aureus and the fungal strain of C. albicans were used. The MIC was taken as the lowest concentration of a cyclotide where the visible growth of microbes was inhibited, i.e., 100% of cell death.
The dried cyclotides were subjected to MIC determination[43] against Staphylococcus aureus (ATCC 29213), Escherichia coli (ATCC 25922), Pseudomonas aeruginosa (ATCC 27853), and Candida albicans (ATCC 90028). The cyclotides (stock concentration of 65 μM) were dissolved in Tris buffer for the assay, and a concentration gradient of the cyclotides was screened against a microbial suspension mixed in a 1:1 ratio in each well (50 μL:50 μL). Microorganisms were grown in 3% tryptic soy broth (TSB) at 37 °C overnight, after centrifuging at 2000 rpm for 6–7 min, and bacterial pellets were washed twice and dissolved with Tris buffer. The absorbance was measured at 600 nm, and the solution was diluted to a concentration of 1 × 10^6 bacteria/mL. Dilution series were prepared using a serial dilution method with cyclotides and Tris buffer. […]

[9] = previously; cited from earlier work
[10] = test system: Human Lymphoma Cell Line U-937 GTB; settings: read-out: cytotoxicity, IC50, lymphoma U937; FMCA, 72 h incubation
Experimental: The cytotoxicity of the cyclotides was determined using the fluorometric microculture cytotoxicity assay, employing the U-937 a human lymphoma cell line. This assay is based on hydrolysis of the probe, fluorescein diacetate (FDA), by esterase in live cells containing an intact plasma membrane. The cyclotides were tested at a series of concentrations obtained by 2-fold dilutions.
Cytotoxicity activities of the pure cyclotides were evaluated using a fluorometric microculture cytotoxicity assay (FMCA),[57] which is based on the monitoring of fluorescence arising from fluorescein that is produced as a result of fluorescein diacetate (FDA) hydrolysis by cells with intact cell membranes. Human lymphoma cells (U937) suspended in cell-growth medium were dispensed into the microtiter plate containing pure cyclotides. Each well was seeded with 200 μL of cell suspension, containing approximately 20 000 cells, to give a total volume of 200 μL/well. […] After 40 min of incubation at 37 °C the fluorescence was measured at 485 nm excitation and 538 nm emission. The fluorescence in each well is proportional to the number of living cells, and cytotoxicity activity of a fraction is inversely proportional to fluorescence intensity. […] The IC50 values were calculated from a sigmoidal dose–response curve with a variable slope to the percentage viability as a function of the peptide concentration (log 10).

[11] = test system: Candida albicans (ATCC 90028); assay: Microdilution MIC assay, C. albicans; format: cell-based; settings: lowest concentration inhibiting 100% growth; Tris buffer, triplicate
Source text: as §1
(§2) The dried cyclotides were subjected to MIC determination[43] against Staphylococcus aureus (ATCC 29213), Escherichia coli (ATCC 25922), Pseudomonas aeruginosa (ATCC 27853), and Candida albicans (ATCC 90028). The cyclotides (stock concentration of 65 μM) were dissolved in Tris buffer for the assay, and a concentration gradient of the cyclotides was screened against a microbial suspension mixed in a 1:1 ratio in each well (50 μL:50 μL). Microorganisms were grown in 3% tryptic soy broth (TSB) at 37 °C overnight, after centrifuging at 2000 rpm for 6–7 min, and bacterial pellets were washed twice and dissolved with Tris buffer. The absorbance was measured at 600 nm, and the solution was diluted to a concentration of 1 × 10^6 bacteria/mL. Dilution series were prepared using a serial dilution method with cyclotides and Tris buffer. In each plate, 50 μL of microbial suspension (approximately 50 000 cells/well) was added and incubated for 5 h. After incubation, 5 μL of 20% TSB was added to each well. Each plate was incubated based on the growth cycle of the microbe for 6, 9, 10, and 12 h at 37 °C. The minimum concentration that inhibited 100% growth was recorded as the MIC value. Triplicate assays were carried out for each sample.

[12] = test system: Pseudomonas aeruginosa (ATCC 27853); assay: Microdilution MIC assay, P. aeruginosa; format: cell-based; settings: lowest concentration inhibiting 100% growth; Tris buffer, triplicate
Source text: as §1, §2

[13] = test system: Escherichia coli (ATCC 25922); assay: Microdilution MIC assay, E. coli; format: cell-based; settings: for antimicrobial activity, MIC, Escherichia coli: lowest concentration inhibiting 100% growth, Tris buffer, triplicate
Source text: as §1, §2

[14] = test system: Staphylococcus aureus (ATCC 29213); assay: Microdilution MIC assay, S. aureus; format: cell-based; settings: lowest concentration inhibiting 100% growth; Tris buffer, triplicate
Source text: as §1, §2

| Compound | antimicrobial activity, MIC, Escherichia coli [1] [µM] | EC50 [2] [µM] | IC50 [3] [µM] | antimicrobial activity, MIC, Candida albicans [4] [µM] | antimicrobial activity, MIC, Staphylococcus aureus [5] [µM] | antimicrobial activity, MIC, Pseudomonas aeruginosa [6] [µM] | EC50 [7] [µM] | minimum inhibitory concentration against panel of microorganisms [8] [µM] | concentration at which active in radial diffusion assays [9] [mM] | IC50 [10] [µM] | antimicrobial activity, MIC, Candida albicans [11] [µM] | antimicrobial activity, MIC, Pseudomonas aeruginosa [12] [µM] | antimicrobial activity, MIC, Escherichia coli [13] [µM] | antimicrobial activity, MIC, Staphylococcus aureus [14] [µM] | fold more active than cyO2 against E. coli ([13]; gere 1 versus cyO2 MIC) [fold] |
| --- | --- | --- | --- | --- | --- | --- | --- | --- | --- | --- | --- | --- | --- | --- | --- |
| cycloviolacin O2 [cyO2, reference compound] | >10 | 0.076 | 0.26 to 1.8 | >10 | >10 | 10 |  |  |  |  |  |  |  |  |  |
| CC[C@H](C)[C@@H]1NC(=O)[C@@H]2CCCN2C(=O)[C@H](Cc2c[nH]c3ccccc23)NC(=O)[C@H](CO)NC(=O)[C@@H]2CSSC[C@@H]3NC(=O)[C@H]([C@@H](C)O)NC(=O)[C@H](CCC(=O)O)NC(=O)CNC(=O)[C@@H]4CSSC[C@H](NC(=O)CNC(=O)[C@H](CCC(N)=O)NC(=O)[C@H]([C@@H](C)O)NC(=O)[C@H](Cc5ccc(O)cc5)NC(=O)[C@H](CSSC[C@H](NC1=O)C(=O)N[C@@H](CCCCN)C(=O)N[C@@H](CCCNC(=N)N)C(=O)N[C@@H](CC(N)=O)C(=O)NCC(=O)N[C@@H](CC(C)C)C(=O)N1CCC[C@H]1C(=O)N[C@@H](C(C)C)C(=O)N4)NC(=O)[C@H]([C@@H](C)O)NC(=O)CNC(=O)[C@H](CC(C)C)NC(=O)[C@H]([C@@H](C)O)NC3=O)C(=O)N[C@@H]([C@@H](C)O)C(=O)N2 [kB7, kalata B7] (cyclo(CGETCTLGTCYTQGCTCSWPICKRNGLPV); disulfide 1-15, 5-17, 10-22) | >10 |  | > 10 | >10 | >10 | 1.25 | 0.094 | ≥ 32.5 | 2 | 10.2 |  |  |  |  |  |
| CC[C@H](C)[C@@H]1NC(=O)[C@H](Cc2ccccc2)NC(=O)[C@H](C(C)C)NC(=O)[C@@H]2CSSC[C@@H]3NC(=O)[C@H](CO)NC(=O)[C@@H]4CSSC[C@H](NC(=O)[C@@H]5CCCN5C(=O)[C@H](C(C)C)NC(=O)CNC(=O)[C@H](CC(N)=O)NC(=O)[C@H](CC(N)=O)NC(=O)[C@H](Cc5ccc(O)cc5)NC(=O)[C@H](CSSC[C@H](NC(=O)[C@@H]5CCCN5C1=O)C(=O)N[C@@H](Cc1ccccc1)C(=O)N[C@@H]([C@@H](C)O)C(=O)N[C@@H]([C@@H](C)O)C(=O)N[C@@H](C(C)C)C(=O)N[C@@H](C(C)C)C(=O)NCC(=O)N4)NC(=O)[C@H](C(C)C)NC(=O)[C@H](CCCCN)NC(=O)[C@H](CC(=O)O)NC(=O)[C@H](CCCCN)NC3=O)C(=O)NCC(=O)N[C@@H](CCC(=O)O)C(=O)N[C@@H](CO)C(=O)N2 [gere 4] |  |  |  |  |  |  |  |  |  |  | >10 | >10 | >10 | >10 |  |
| CC[C@H](C)[C@@H]1NC(=O)[C@H](C)NC(=O)[C@H](CO)NC(=O)[C@H](CO)NC(=O)[C@H]([C@@H](C)CC)NC(=O)[C@@H]2CSSC[C@@H]3NC(=O)[C@H](C(C)C)NC(=O)[C@H](CCCCN)NC(=O)[C@H](CC(N)=O)NC(=O)[C@H](CCCCN)NC(=O)[C@@H]4CSSC[C@H](NC(=O)[C@H](CO)NC(=O)[C@H](CCC(=O)O)NC(=O)CNC(=O)[C@H](CSSC[C@H](NC(=O)CNC1=O)C(=O)N[C@@H](CO)C(=O)N4)NC(=O)[C@@H]1CCCN1C(=O)[C@H]([C@@H](C)CC)NC(=O)CNC(=O)[C@H](CC(N)=O)NC(=O)[C@H](CCCCN)NC(=O)[C@H](Cc1ccc(O)cc1)NC3=O)C(=O)N[C@@H](C(C)C)C(=O)N[C@@H](Cc1c[nH]c3ccccc13)C(=O)N[C@@H]([C@@H](C)CC)C(=O)N1CCC[C@H]1C(=O)N2 [gere 1] (cyclo(AIGCSCKNKVCYKNGIPCGESCVWIPCISS); disulfide 4-18, 6-22, 11-27) |  |  |  |  |  |  | 0.07 |  |  | 2 | >10 | 7.9 | 4.0 | >10 | 5 |
| CC[C@H](C)[C@@H]1NC(=O)CNC(=O)[C@H](CC(N)=O)NC(=O)[C@H]([C@@H](C)CC)NC(=O)[C@H](Cc2ccc(O)cc2)NC(=O)[C@@H]2CSSC[C@@H]3NC(=O)CNC(=O)[C@H](Cc4ccccc4)NC(=O)[C@H](Cc4ccc(O)cc4)NC(=O)[C@H](C)NC(=O)[C@@H]4CSSC[C@H](NC(=O)[C@H](CO)NC(=O)[C@H](CSSC[C@H](NC(=O)[C@H](C)NC1=O)C(=O)NCC(=O)N[C@@H](CCC(=O)O)C(=O)N[C@@H](CO)C(=O)N4)NC(=O)CNC(=O)[C@@H]1CCCN1C(=O)[C@H]([C@@H](C)CC)NC(=O)[C@H](Cc1c[nH]c4ccccc14)NC3=O)C(=O)N[C@@H](CCCCN)C(=O)N[C@@H](CC(=O)O)C(=O)N[C@@H](CCCCN)C(=O)N[C@@H](C(C)C)C(=O)N2 [gere 2] |  |  |  |  |  |  |  |  |  |  | >10 | >10 | >10 | >10 |  |
| CC[C@H](C)[C@@H]1NC(=O)[C@@H]2CSSC[C@@H]3NC(=O)[C@H](C(C)C)NC(=O)[C@H](CCCCN)NC(=O)[C@H](CC(=O)O)NC(=O)[C@H](CCCCN)NC(=O)[C@@H]4CSSC[C@H](NC(=O)[C@H](CO)NC(=O)[C@H](CCC(=O)O)NC(=O)CNC(=O)[C@H](CSSC[C@H](NC(=O)CNC(=O)[C@H]([C@@H](C)CC)NC(=O)[C@H](C(C)C)NC(=O)[C@H]([C@@H](C)O)NC(=O)[C@H]([C@@H](C)O)NC1=O)C(=O)N[C@@H](CO)C(=O)N4)NC(=O)[C@@H]1CCCN1C(=O)[C@H](C(C)C)NC(=O)CNC(=O)[C@H](CC(N)=O)NC(=O)[C@H]([C@@H](C)O)NC(=O)[C@H](Cc1ccc(O)cc1)NC3=O)C(=O)N[C@@H](C(C)C)C(=O)N[C@@H](Cc1ccccc1)C(=O)N[C@@H]([C@@H](C)CC)C(=O)N1CCC[C@H]1C(=O)N2 [gere 3] |  |  |  |  |  |  |  |  |  |  | >10 | >10 | >10 | >10 |  |

— article PMC9887600, “Screening for Cyclotides in Sri Lankan Medicinal Plants: Discovery, Characterization, and Bioactivity Screening of Cyclotides from Geophila repens” (Journal of Natural Products, 2022)
